≈ marks a conversion by molar mass, not a printed value. Residues, ends and D or L forms follow the SMILES beside them.
Legend:
[1] = system: Pseudomonas aeruginosa ATCC 27853; type: cell-based
Summary of the method: (§1)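 Peptides are tested in low-salt phosphate buffer (10 mM, pH 7.4, 1% TS broth) against 5 × 10^5 CFU/mL mid-log cultures for 1 h, over a two-fold range topping at 64 μg/mL. Bactericidal endpoint is the lowest concentration leaving no colonies after overnight plating at 37 °C.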

[2] = system: Staphylococcus aureus ATCC 29213; type: cell-based
Summary of the method: as §1

[3] = system: Streptococcus pneumoniae NCCP 14585; type: cell-based; settings: NCCP 14585, 1 h
Summary of the method: as §1

[4] = system: Carbapenem-resistant P. aeruginosa (CRPA), clinical isolate; type: cell-based, Pseudomonas aeruginosa; settings: 1 h
Summary of the method: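 Mid-log clinical isolates diluted to 5 × 10^5 CFU/mL in 10 mM sodium phosphate (pH 7.4) with 1% TS broth, exposed 1 h to peptides two-fold diluted from 64 μg/mL, then plated on TS agar overnight at 37 °C. MBC is the lowest concentration with no colonies.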

[5] = system: Acinetobacter baumannii ATCC 19606; assay: Modified MBC determination; type: cell-based; settings: Table 2
Description: (§2) The minimum bactericidal concentration (MBC) was determined as previously described with minor modifications. Briefly, bacteria were cultured in the mid-log phase and diluted to 5 × 10^5 colony-forming unit (CFU)/mL in 10 mM sodium phosphate buffer (pH 7.4) with a 1% volume of TS broth. They were incubated for 1 h with various peptides which were two-fold diluted serially from 64 μg/mL to 0 μg/mL concentrations in a 96-well plate. The samples were inoculated TS agar plate and incubated overnight at 37 °C. The value of MBC was determined at the lowest concentrations at which no colonies were identified.
(§3) We used the CFU counting method to measure antibacterial activity, with all bacteria cultured to the mid-log phase in an appropriate broth medium. Bacterial CFUs were counted after overnight culture at 37 °C on TS or LB agar plates. The MBC value and antibacterial activity in blood components were determined as previously described. Mouse and human whole blood were collected and diluted with PBS (pH 7.4) to measure the ex vivo antibacterial activity of AMPR-22. For that test, AMPR-22 (10 μg) was added to each whole blood solution and incubated at 37 °C with shaking at 200 rpm. At each time point, it was incubated with bacteria (1 × 10^3 CFU) for 30 min. Each sample was inoculated on an LB agar plate, and CFU counting was performed. To measure the in vivo activity of AMPR-22, 1 × 10^8 CFU of bacteria were injected into BALB/c mice, and an hour later, 10 mg/kg of the test peptides were injected. Blood samples were collected by tail cut, serially diluted with PBS (pH 7.4), and inoculated on LB-agar plates, followed by CFU counting. To estimate the functional half-life of AMPR-22, 40 mg/kg of each tested peptide were injected into mice. Whole blood sampling was performed by cardiac puncture, and the plasma was isolated by centrifugation (2000× g, 15 min). The isolated plasma was incubated with bacteria (1 × 10^3 CFU) for an hour, and then the CFU counting method was performed.

[6] = system: Bacillus subtilis ATCC 6633; assay: Modified MBC determination; type: cell-based; settings: Table 2
Description: as §2, §3

[7] = system: Enterobacter aerogenes ATCC 13048; assay: Modified MBC determination; type: cell-based; settings: Table 2
Description: as §2, §3

[8] = system: Enterococcus faecalis ATCC 19433; assay: Modified MBC determination; type: cell-based; settings: Table 2
Description: as §2, §3

[9] = system: Enterococcus faecium ATCC 19434; assay: Modified MBC determination; type: cell-based; settings: Table 2
Description: as §2, §3

[10] = system: Escherichia coli ATCC 25922; assay: Modified MBC determination; type: cell-based; settings: Table 2
Description: as §2, §3

[11] = system: Klebsiella pneumoniae ATCC 13883; assay: Modified MBC determination; type: cell-based; settings: Table 2
Description: as §2, §3

[12] = system: Streptomyces sindenensis ATCC 23963; assay: Modified MBC determination; type: cell-based; settings: Table 2
Description: as §2, §3

[13] = system: human erythrocytes; assay: Hemolysis assay; type: cell-based; settings: 2% erythrocytes in PBS, 1 h 37 °C, absorbance 550 nm; up to / at 256 µg/mL
Description: (§4) For the hemolytic assay, mouse and human whole blood was diluted with PBS (pH 7.4) and centrifuged for 10 min at 500× g. After removing the supernatant and rinsing the pellet three times with PBS, we resuspended the erythrocytes in PBS at 2% volume. The blood solution was added to the solution of peptides with two-fold serial dilution on a 96-well plate. After incubation for an hour at 37 °C, the plate was centrifuged at 2500× g for 10 min, and the absorbance of the supernatant was measured at 550 nm. The PBS-treated sample was the negative control, and the 0.1% Triton X-100–treated sample was the positive control. To measure white blood cell toxicity, mouse and human PBMCs were freshly isolated as previously described, and 70% ethanol (positive control) or AMPR-22 was administered using two-fold diluted concentrations (0 to 256 μg/mL) for 30 min. To measure cell death, a LIVE/DEAD® fixable green dead cell stain kit (Thermo Fisher Scientific, Waltham, MS, USA) was used following the manufacturer′s instructions, and flow cytometry was performed using a FACS Canto II (BD Biosciences, CA, USA). The toxicity of AMPR-22 was compared with negative (PBS-treated) and positive controls, and the data were analyzed using FlowJo software (Tree Star, OR, USA).

[14] = system: mouse erythrocytes; assay: Hemolysis assay; type: cell-based; settings: 2% erythrocytes in PBS, 1 h 37 °C, absorbance 550 nm; concentrations up to 256 µg/mL
Description: as §4

## CC[C@H](C)[C@H](NC(=O)CNC(=O)CNC(=O)[C@@H](NC(=O)[C@H](C)NC(=O)[C@H](CCSC)NC(=O)[C@H](Cc1ccccc1)NC(=O)[C@@H](NC(=O)CNC(=O)[C@H](Cc1ccccc1)NC(=O)[C@H](CCCCN)NC(=O)CNC(=O)CNC(=O)[C@H](CCCCN)NC(=O)[C@H](CCCCN)NC(=O)[C@H](CCSC)NC(=O)[C@H](CCSC)NC(=O)[C@H](CCCCN)NC(=O)[C@@H](N)CCCCN)[C@@H](C)O)[C@@H](C)CC)C(=O)N[C@@H](CCCNC(=N)N)C(=O)O [AMPR-22] (H-KKMMKKGGKFGTFMAIGGIR-OH)
[1]; ATCC 27853, 1 h
  MBC Value, P. aeruginosa: 2 µg/mL (≈ 0.915 µM)
[1]; Table 2, ATCC 27853, modified MBC
  MBC Value, Pseudomonas aeruginosa: 2 µg/mL (≈ 0.915 µM)
[2]; ATCC 29213, 1 h, pH 7.4
  MBC Value, S. aureus: 2 µg/mL (≈ 0.915 µM)
[2]; Table 2, ATCC 29213, modified MBC
  MBC Value, Staphylococcus aureus: 2 µg/mL (≈ 0.915 µM)
[3]
  MBC Value, Streptococcus pneumoniae: 4 µg/mL (≈ 1.83 µM)
[4]
  MBC Value, CRPA: 4 µg/mL (≈ 1.83 µM)
  MBC Value, Carbapenem-resistant P. aeruginosa: 4 µg/mL (≈ 1.83 µM)
[5]
  MBC Value, Acinetobacter baumannii: 1 µg/mL (≈ 0.457 µM)
[6]
  MBC Value, Bacillus subtilis: 1 µg/mL (≈ 0.457 µM)
[7]
  MBC Value, Enterobacter aerogenes: 2 µg/mL (≈ 0.915 µM)
[8]
  MBC Value, Enterococcus faecalis: 4 µg/mL (≈ 1.83 µM)
[9]
  MBC Value, Enterococcus faecium: 4 µg/mL (≈ 1.83 µM)
[10]
  MBC Value, Escherichia coli: 1 µg/mL (≈ 0.457 µM)
[11]
  MBC Value, Klebsiella pneumoniae: 1 µg/mL (≈ 0.457 µM)
[12]
  MBC Value, Streptomyces sindenensis: 2 µg/mL (≈ 0.915 µM)
[13]
  Hemolytic activity against human erythrocytes: negligible hemolytic activity
[14]
  Hemolytic activity against mouse erythrocytes: relatively endurable hemolysis properties
